Assay results taken from patent US12605404B2, “Synthetic cellular membrane chemical ionophore delivery system comprising hexa-aqua ligand compositions” (priority 2021, dated 2026).

Test system: Staphylococcus aureus (MRSA)
Experiment: Broth Microdilution (CLSI-BMD), non-biofilm, 10 MRSA isolates
Type: cell-based
From the text: A non-biofilm antimicrobial assay using the broth microdilution-based sensitivity method was completed at the University of Debrecen, Hungary. […] A percentage solution calculation established that twice the amount of vancomycin was needed to create the same 50% turbidity reduction in MRSA when tested in comparison to ZC-1.

CN[C@H](CC(C)C)C(=O)N[C@H]1C(=O)N[C@@H](CC(N)=O)C(=O)N[C@H]2C(=O)N[C@H]3C(=O)N[C@H](C(=O)N[C@H](C(=O)O)c4cc(O)cc(O)c4-c4cc3ccc4O)[C@H](O)c3ccc(c(Cl)c3)Oc3cc2cc(c3O[C@@H]2O[C@H](CO)[C@@H](O)[C@H](O)[C@H]2O[C@H]2C[C@](C)(N)[C@H](O)[C@H](C)O2)Oc2ccc(cc2Cl)[C@H]1O [Vancomycin]
MIC values, range (control, 10 MRSA isolates): 4 to 16 µg/mL
amount needed for the same 50% turbidity reduction in MRSA, in comparison to ZC-1 (percentage solution calculation): twice
